One data set has as its system HT-29. Kind of data set: Anti-necroptosis activity against TSZ-induced human HT-29 cells by microscopic analysis. The format is functional, cell-based.
The subject of the next data set is U-937. The experiment in a line: Anti-necroptosis activity against TSZ-induced human U-937 cells. The format is functional, cell-based.
In a further data set the test system is L929. The experiment in a line: Anti-necroptosis activity against TSZ-induced mouse L929 cells. It is filed as functional, cell-based.
Data set [1] can be described thus: Half life in BALB/c mouse at 10 mg/kg, po. Conditions: BALB/c, in vivo. The format is ADME, organism-based.
Data set [2] is described as follows: AUC (0 to t) in BALB/c mouse at 10 mg/kg, iv. It is filed as ADME, organism-based. The conditions noted are these: BALB/c, in vivo.
The target of data set [3] is T1, Mixed lineage kinase domain-like protein (Homo sapiens, UniProt Q8NB16).
T1 sequence (Q8NB16 whole entry): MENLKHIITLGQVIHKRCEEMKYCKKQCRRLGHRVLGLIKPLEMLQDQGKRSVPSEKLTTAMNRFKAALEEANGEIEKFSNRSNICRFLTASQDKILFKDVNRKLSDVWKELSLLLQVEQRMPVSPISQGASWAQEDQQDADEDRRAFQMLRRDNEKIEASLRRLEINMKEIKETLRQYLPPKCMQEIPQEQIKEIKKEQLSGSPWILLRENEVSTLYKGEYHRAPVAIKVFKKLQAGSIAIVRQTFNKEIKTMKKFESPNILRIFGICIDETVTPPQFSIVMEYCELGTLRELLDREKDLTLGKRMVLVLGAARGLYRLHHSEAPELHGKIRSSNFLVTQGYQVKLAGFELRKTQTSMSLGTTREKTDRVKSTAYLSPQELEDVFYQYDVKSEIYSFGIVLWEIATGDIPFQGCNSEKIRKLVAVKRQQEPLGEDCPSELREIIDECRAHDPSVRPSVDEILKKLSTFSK
Kind of data set: Binding affinity to MLKL (unknown origin) assessed as dissociation constant.

The target in data set [4] is T2, Discoidin domain-containing receptor 2 (Homo sapiens) (UniProt Q16832).
T2 sequence (whole entry): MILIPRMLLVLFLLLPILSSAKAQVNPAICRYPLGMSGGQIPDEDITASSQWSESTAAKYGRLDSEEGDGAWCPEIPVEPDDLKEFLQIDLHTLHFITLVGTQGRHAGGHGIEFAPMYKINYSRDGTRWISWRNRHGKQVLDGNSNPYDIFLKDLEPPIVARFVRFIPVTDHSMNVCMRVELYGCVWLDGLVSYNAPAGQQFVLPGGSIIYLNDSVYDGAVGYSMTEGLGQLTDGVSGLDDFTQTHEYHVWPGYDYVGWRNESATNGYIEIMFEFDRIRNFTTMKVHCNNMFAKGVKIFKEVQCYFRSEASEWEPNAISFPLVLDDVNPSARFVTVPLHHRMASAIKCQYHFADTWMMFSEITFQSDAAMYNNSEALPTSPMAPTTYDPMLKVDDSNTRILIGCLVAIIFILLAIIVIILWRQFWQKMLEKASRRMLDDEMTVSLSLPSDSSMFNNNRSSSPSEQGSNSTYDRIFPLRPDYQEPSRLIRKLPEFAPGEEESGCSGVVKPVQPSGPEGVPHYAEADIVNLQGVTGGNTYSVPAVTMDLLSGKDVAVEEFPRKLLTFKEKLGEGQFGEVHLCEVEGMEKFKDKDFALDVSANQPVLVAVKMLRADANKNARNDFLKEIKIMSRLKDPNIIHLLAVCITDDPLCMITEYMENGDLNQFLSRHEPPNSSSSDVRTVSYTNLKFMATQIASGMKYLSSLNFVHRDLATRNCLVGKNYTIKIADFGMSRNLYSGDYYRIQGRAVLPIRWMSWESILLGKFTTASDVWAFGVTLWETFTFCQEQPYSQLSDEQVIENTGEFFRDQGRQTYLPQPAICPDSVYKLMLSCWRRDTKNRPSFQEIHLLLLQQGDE
The experiment in a line: Inhibition of DDR2 (unknown origin).

Data set [5] concerns the target Vascular endothelial growth factor receptor 3 (Homo sapiens) (UniProt P35916). The experiment in a line: Inhibition of FLT4 (unknown origin).
Data set [6] has as its target BDNF/NT-3 growth factors receptor (Homo sapiens) (UniProt Q16620). The experiment in a line: Inhibition of TRKB (unknown origin).
For data set [7], the target named is NT-3 growth factor receptor (Homo sapiens) (UniProt Q16288). The experiment in a line: Inhibition of TRKC (unknown origin).
Chain of NT-3 growth factor receptor (Homo sapiens) (Q16288 32-839 limits assumed): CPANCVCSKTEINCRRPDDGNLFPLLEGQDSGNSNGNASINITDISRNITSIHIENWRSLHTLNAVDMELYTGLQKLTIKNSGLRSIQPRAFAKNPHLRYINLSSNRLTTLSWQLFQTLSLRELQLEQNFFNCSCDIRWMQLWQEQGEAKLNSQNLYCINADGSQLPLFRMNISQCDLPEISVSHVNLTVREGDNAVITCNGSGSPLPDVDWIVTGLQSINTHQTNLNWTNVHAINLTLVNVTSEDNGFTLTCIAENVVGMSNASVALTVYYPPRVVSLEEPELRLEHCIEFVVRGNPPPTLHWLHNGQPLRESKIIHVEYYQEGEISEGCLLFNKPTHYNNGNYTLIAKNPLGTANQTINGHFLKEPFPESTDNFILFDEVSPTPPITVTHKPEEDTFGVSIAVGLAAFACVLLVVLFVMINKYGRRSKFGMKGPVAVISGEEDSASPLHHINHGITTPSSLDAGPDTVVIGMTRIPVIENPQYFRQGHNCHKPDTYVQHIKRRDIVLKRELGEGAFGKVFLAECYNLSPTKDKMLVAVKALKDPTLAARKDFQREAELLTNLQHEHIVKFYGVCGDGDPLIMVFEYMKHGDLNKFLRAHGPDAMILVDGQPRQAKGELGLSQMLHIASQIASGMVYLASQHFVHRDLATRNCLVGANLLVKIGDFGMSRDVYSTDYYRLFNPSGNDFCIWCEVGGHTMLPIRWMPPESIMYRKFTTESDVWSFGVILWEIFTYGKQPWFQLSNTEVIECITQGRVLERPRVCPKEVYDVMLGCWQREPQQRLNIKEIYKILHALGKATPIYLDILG
The target of data set [8] is T3, Receptor-interacting serine/threonine-protein kinase 3 (Homo sapiens, UniProt Q9Y572). The conditions noted are these: HT-29, dose 3.0 nM, time 6.0 hrs.
T3 sequence (Q9Y572 whole entry, looked up, the tested form may be a part): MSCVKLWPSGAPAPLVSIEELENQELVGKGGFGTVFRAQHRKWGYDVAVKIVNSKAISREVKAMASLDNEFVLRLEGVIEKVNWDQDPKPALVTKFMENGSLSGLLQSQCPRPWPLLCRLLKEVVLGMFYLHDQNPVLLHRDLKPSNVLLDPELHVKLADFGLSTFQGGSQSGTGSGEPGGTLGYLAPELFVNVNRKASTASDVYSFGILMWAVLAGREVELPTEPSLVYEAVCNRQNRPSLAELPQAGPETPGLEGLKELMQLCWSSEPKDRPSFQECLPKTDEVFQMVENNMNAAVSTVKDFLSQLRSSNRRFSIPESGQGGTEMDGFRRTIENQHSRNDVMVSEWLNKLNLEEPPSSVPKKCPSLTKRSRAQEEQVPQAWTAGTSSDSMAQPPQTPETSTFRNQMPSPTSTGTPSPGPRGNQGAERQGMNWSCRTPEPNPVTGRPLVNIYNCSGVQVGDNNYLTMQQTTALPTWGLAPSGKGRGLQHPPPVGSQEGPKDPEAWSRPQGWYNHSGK
Data set [9] addresses T4, Mixed lineage kinase domain-like protein (Homo sapiens) (UniProt Q8NB16).
T4 sequence (whole entry): T1 sequence (Q8NB16 whole entry)
The conditions noted are these: HT-29, dose 30.0 nM, time 6.0 hrs.

The target of data set [10] is T3, Receptor-interacting serine/threonine-protein kinase 3. Conditions: HT-29, dose 300.0 nM, time <= 6.0 hrs, TDE = time-dependent effect.
Description: Inhibition of RIPK3 phosphorylation in TSZ-induced human HT-29 cells at 300 nM by Western blot analysis

The text below walks through data of ChEMBL document CHEMBL5518188, “Discovery of 4-amino-1,6-dihydro-7H-pyrrolo[2,3-d]pyridazin-7-one derivatives as potential receptor-interacting serine/threonine-protein kinase 1 (RIPK1) inhibitors” (Eur J Med Chem, 2024).

The source made the active and inactive calls. Where only a bound is given, the exact number is not on record here.

Chain of BDNF/NT-3 growth factors receptor (Homo sapiens) (Q16620 32-822 limits assumed): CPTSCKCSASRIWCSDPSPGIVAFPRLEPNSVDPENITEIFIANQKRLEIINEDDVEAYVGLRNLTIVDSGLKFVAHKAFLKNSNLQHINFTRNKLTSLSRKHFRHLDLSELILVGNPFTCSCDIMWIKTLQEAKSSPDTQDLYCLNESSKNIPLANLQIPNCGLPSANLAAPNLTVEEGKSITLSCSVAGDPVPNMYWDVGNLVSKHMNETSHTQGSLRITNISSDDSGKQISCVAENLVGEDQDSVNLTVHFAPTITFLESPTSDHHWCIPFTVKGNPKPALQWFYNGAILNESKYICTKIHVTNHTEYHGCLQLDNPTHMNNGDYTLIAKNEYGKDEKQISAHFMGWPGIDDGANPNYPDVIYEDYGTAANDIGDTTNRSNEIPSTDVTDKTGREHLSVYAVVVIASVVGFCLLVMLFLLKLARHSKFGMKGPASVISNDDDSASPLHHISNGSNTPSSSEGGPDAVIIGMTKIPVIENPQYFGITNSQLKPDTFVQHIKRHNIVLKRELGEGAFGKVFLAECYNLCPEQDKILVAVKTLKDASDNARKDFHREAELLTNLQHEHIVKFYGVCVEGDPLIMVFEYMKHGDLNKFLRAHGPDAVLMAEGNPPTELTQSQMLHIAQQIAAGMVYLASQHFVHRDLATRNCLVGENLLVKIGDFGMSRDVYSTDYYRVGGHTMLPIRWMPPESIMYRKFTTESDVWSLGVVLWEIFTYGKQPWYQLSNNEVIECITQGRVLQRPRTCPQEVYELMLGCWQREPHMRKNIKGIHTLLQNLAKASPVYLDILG
Chain of Vascular endothelial growth factor receptor 3 (Homo sapiens) (P35916 whole entry): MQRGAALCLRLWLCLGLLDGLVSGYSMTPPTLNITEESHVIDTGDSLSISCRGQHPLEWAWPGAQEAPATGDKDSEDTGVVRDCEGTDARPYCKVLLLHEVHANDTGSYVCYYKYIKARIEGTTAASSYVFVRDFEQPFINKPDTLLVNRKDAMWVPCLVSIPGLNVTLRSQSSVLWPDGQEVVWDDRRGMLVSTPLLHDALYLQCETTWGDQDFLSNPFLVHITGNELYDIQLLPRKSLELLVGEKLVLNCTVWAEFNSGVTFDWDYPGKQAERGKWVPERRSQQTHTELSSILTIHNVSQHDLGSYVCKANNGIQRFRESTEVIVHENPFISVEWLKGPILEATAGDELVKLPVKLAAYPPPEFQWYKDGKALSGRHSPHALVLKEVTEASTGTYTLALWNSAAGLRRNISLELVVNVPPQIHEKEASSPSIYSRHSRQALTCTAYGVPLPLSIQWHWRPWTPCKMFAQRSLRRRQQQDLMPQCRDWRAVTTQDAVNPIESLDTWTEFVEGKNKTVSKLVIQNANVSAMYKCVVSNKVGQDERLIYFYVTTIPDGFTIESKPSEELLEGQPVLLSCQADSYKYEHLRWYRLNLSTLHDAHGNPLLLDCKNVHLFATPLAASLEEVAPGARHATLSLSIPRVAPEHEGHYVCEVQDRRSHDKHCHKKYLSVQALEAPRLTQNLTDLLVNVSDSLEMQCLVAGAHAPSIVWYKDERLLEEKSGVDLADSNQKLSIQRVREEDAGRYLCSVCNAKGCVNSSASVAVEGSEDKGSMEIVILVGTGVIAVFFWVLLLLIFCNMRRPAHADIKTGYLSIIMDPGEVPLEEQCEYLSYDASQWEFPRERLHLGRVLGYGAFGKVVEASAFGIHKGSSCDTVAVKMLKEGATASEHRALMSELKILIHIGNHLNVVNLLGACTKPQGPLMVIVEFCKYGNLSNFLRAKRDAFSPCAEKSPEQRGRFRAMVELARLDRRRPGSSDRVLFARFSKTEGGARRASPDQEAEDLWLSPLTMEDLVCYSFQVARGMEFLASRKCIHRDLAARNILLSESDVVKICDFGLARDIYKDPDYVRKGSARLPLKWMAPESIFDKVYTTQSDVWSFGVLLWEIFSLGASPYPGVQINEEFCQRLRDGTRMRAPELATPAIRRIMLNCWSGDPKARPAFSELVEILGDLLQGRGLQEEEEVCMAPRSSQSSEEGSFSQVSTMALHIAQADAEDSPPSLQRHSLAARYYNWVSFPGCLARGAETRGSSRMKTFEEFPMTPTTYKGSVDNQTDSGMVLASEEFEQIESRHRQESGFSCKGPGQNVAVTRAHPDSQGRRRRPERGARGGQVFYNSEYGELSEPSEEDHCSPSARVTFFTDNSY

Usually EC50 stands for the concentration that produces a half-maximal response. Low values mean an effect from little substance, high ones a need for much substance. The half-life is the time needed for the level to fall by half in the phase considered. Higher therefore signals slow loss. By AUC(0-t) is commonly meant the area under the concentration-time curve up to a stated or last time point. Read a low AUC(0-t) as low exposure. In general, Kd refers to the concentration at which binding is half-saturated. As for `CC1(Cn2cc(-c3ccc4c(c3)CCN4C(=O)Cc3cccc(OC(F)(F)F)c3)c3c(N)n[nH]c(=O)c32)COC1`, in the data set on HT-29, the result was Active. Further, the results for the 50% effective concentration (EC50) in the data set on U-937 and in the data set with L929 were 3.09 nM and 1.06 nM, respectively. Besides, the half-life in data set [1] is 1.04 h. Also, the AUC(0-t) in data set [2] turned out to be 9640 ng·h/mL. For the same compound, the Kd in [3] was more than 30000 nM. The inhibition result in [4], in [5], in data set [6] and in data set [7] was “Active” throughout. The inhibition result is “Dose-Dependent Effect” in [8], “Dose-Dependent Effect” in data set [9] and “Tde” in [10].
